Source: ChEMBL document CHEMBL1201862, “PubChem BioAssay data set” (2004)
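In this assay, cells in 96-well plates receive the compound at five concentrations for 48 hours. Endpoints are linearly interpolated between the surrounding concentrations. GI50 = concentration required for 50% inhibition of growth.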 Activity calls are given as the source filed them. No stated cut-off is given here; in the data, active = GI50 up to about 1.1 µM and inactive = higher.

Columns and labels:
Test in all cases: DTP human tumour cell line panel, 48 h
MDA-MB-435 = tested on: MDA-MB-435
NCI-H226 = tested on: NCI-H226
Malme-3M = tested on: Malme-3M
LOX IMVI = tested on: LOX IMVI
K562 = tested on: K562
T47D = tested on: T47D
UO-31 = tested on: UO-31
SW-620 = tested on: SW-620
UACC-257 = tested on: UACC-257
HCT-116 = tested on: HCT-116
HL-60 = tested on: HL-60
NCI-H460 = tested on: NCI-H460
KM12 = tested on: KM12
MOLT-4 = tested on: MOLT-4
NCI-H522 = tested on: NCI-H522
MDA-N = tested on: MDA-N
OVCAR-3 = tested on: OVCAR-3
OVCAR-5 = tested on: OVCAR-5
SK-MEL-2 = tested on: SK-MEL-2
SK-OV-3 = tested on: SK-OV-3

SMILES	GI50 (MDA-MB-435)	GI50 (NCI-H226)	GI50 (Malme-3M)	GI50 (LOX IMVI)	GI50 (K562)	GI50 (T47D)	GI50 (UO-31)	GI50 (SW-620)	GI50 (UACC-257)	GI50 (HCT-116)	GI50 (HL-60)	GI50 (NCI-H460)	GI50 (KM12)	GI50 (MOLT-4)	GI50 (NCI-H522)	GI50 (MDA-N)	GI50 (OVCAR-3)	GI50 (OVCAR-5)	GI50 (SK-MEL-2)	GI50 (SK-OV-3)
Cc1cc2c(cc1C)C(=O)C1(C2)Cc2c(C)ccc(C)c2C1=O (stereo unspecified)	> 100 µM (inactive)	> 100 µM (inactive)	84.9 µM (inactive)	> 100 µM (inactive)	> 100 µM (inactive)	25.2 µM (inactive)	> 100 µM (inactive)	> 100 µM (inactive)	> 100 µM (inactive)	> 100 µM (inactive)	> 100 µM (inactive)	> 100 µM (inactive)	> 100 µM (inactive)	> 100 µM (inactive)	> 100 µM (inactive)	> 100 µM (inactive)	> 100 µM (inactive)	> 100 µM (inactive)	> 100 µM (inactive)	–
COC(=O)c1c2c(cc3c1CC1(Cc4cc5c(c(C=O)c4C1)CCC5)C3)CCC2 (stereo unspecified)	17.7 µM (inactive)	–	22.9 µM (inactive)	22.5 µM (inactive)	13.4 µM (inactive)	30.7 µM (inactive)	25.1 µM (inactive)	53.2 µM (inactive)	21.2 µM (inactive)	21.2 µM (inactive)	25.8 µM (inactive)	45 µM (inactive)	–	17 µM (inactive)	17.3 µM (inactive)	34 µM (inactive)	23.3 µM (inactive)	67.8 µM (inactive)	23.8 µM (inactive)	42.5 µM (inactive)
CNC(=O)CCC(NC(=O)OC(C)(C)C)C(=O)NC(Cc1ccc(NC(=O)CCCCC(C)=O)cc1)C(=O)NCC(=O)NC (stereo unspecified)	> 100 µM (inactive)	> 100 µM (inactive)	> 100 µM (inactive)	> 100 µM (inactive)	> 100 µM (inactive)	> 100 µM (inactive)	> 100 µM (inactive)	> 100 µM (inactive)	–	> 100 µM (inactive)	> 100 µM (inactive)	> 100 µM (inactive)	> 100 µM (inactive)	> 100 µM (inactive)	> 100 µM (inactive)	> 100 µM (inactive)	> 100 µM (inactive)	> 100 µM (inactive)	–	> 100 µM (inactive)
COC1=C(OC)C(=O)C(Cc2c(-c3ccccc3)nc3sc(Cl)cn23)=C(C)C1=O	16.5 µM (inactive)	–	16.5 µM (inactive)	23.7 µM (inactive)	23.9 µM (inactive)	23.4 µM (inactive)	15.8 µM (inactive)	23.3 µM (inactive)	16 µM (inactive)	16.4 µM (inactive)	7.91 µM (inactive)	16 µM (inactive)	17 µM (inactive)	1.96 µM (inactive)	13.6 µM (inactive)	16.3 µM (inactive)	16.3 µM (inactive)	28.2 µM (inactive)	15.6 µM (inactive)	18.5 µM (inactive)
CC(=O)OCC12C(=O)C[C@@H](C)C3(CC(c4ccoc4)OC3=O)C1CCC(OC(C)=O)C21CO1 (stereo partly specified)	> 100 µM (inactive)	> 100 µM (inactive)	> 100 µM (inactive)	> 100 µM (inactive)	> 100 µM (inactive)	> 100 µM (inactive)	> 100 µM (inactive)	> 100 µM (inactive)	> 100 µM (inactive)	> 100 µM (inactive)	> 100 µM (inactive)	> 100 µM (inactive)	> 100 µM (inactive)	> 100 µM (inactive)	> 100 µM (inactive)	> 100 µM (inactive)	> 100 µM (inactive)	> 100 µM (inactive)	> 100 µM (inactive)	–
CC1=NNC(=O)C1C1CC(c2c[nH]c3ccccc23)=NNC1=S (stereo unspecified)	94.4 µM (inactive)	> 100 µM (inactive)	> 100 µM (inactive)	–	48.5 µM (inactive)	82.2 µM (inactive)	30.6 µM (inactive)	> 100 µM (inactive)	> 100 µM (inactive)	> 100 µM (inactive)	68.4 µM (inactive)	68.5 µM (inactive)	29.6 µM (inactive)	37.2 µM (inactive)	> 100 µM (inactive)	> 100 µM (inactive)	> 100 µM (inactive)	> 100 µM (inactive)	> 100 µM (inactive)	> 100 µM (inactive)
CC1(C)[C@@H](Cn2cnc3c(N)ncnc32)CC[C@@]1(C)CO	45.6 µM (inactive)	40.3 µM (inactive)	> 100 µM (inactive)	> 100 µM (inactive)	17.3 µM (inactive)	> 100 µM (inactive)	81.1 µM (inactive)	82.8 µM (inactive)	67.1 µM (inactive)	44.9 µM (inactive)	40.1 µM (inactive)	> 100 µM (inactive)	27.4 µM (inactive)	11.9 µM (inactive)	41.3 µM (inactive)	50 µM (inactive)	73.6 µM (inactive)	83.4 µM (inactive)	–	> 100 µM (inactive)
CC(C)Cc1c(C#N)c(C#N)c(N)n1Cc1ccccc1	> 100 µM (inactive)	> 100 µM (inactive)	> 100 µM (inactive)	> 100 µM (inactive)	> 100 µM (inactive)	> 100 µM (inactive)	> 100 µM (inactive)	> 100 µM (inactive)	> 100 µM (inactive)	> 100 µM (inactive)	> 100 µM (inactive)	–	> 100 µM (inactive)	> 100 µM (inactive)	> 100 µM (inactive)	> 100 µM (inactive)	> 100 µM (inactive)	> 100 µM (inactive)	> 100 µM (inactive)	> 100 µM (inactive)
CC1=CC(=O)c2cccc(NC3=NCCO3)c21	31.6 µM (inactive)	29 µM (inactive)	30.6 µM (inactive)	37.8 µM (inactive)	34.5 µM (inactive)	68.7 µM (inactive)	76.6 µM (inactive)	> 100 µM (inactive)	–	33.6 µM (inactive)	19.7 µM (inactive)	31.3 µM (inactive)	30.4 µM (inactive)	32.7 µM (inactive)	69.8 µM (inactive)	27.7 µM (inactive)	25.4 µM (inactive)	> 100 µM (inactive)	97.1 µM (inactive)	> 100 µM (inactive)
c1ccc(/N=C2\c3ccccc3CN2c2ccccc2)cc1	> 100 µM (inactive)	> 100 µM (inactive)	> 100 µM (inactive)	> 100 µM (inactive)	> 100 µM (inactive)	80.2 µM (inactive)	> 100 µM (inactive)	> 100 µM (inactive)	> 100 µM (inactive)	> 100 µM (inactive)	> 100 µM (inactive)	> 100 µM (inactive)	> 100 µM (inactive)	> 100 µM (inactive)	> 100 µM (inactive)	> 100 µM (inactive)	> 100 µM (inactive)	–	> 100 µM (inactive)	> 100 µM (inactive)
CC[C@@]1(O)CC(OC2CC(N3CCOCC3)C(O)C(C)O2)c2c(O)c3c(c(O)c2[C@H]1O)C(=O)c1cccc(O)c1C3=O (stereo partly specified)	0.304 µM (active)	0.0893 µM (active)	0.0502 µM (active)	0.0644 µM (active)	0.112 µM (active)	0.179 µM (active)	–	0.0469 µM (active)	0.214 µM (active)	0.0519 µM (active)	0.0311 µM (active)	0.00686 µM (active)	0.182 µM (active)	–	0.166 µM (active)	0.131 µM (active)	0.355 µM (active)	0.371 µM (active)	0.312 µM (active)	0.126 µM (active)
